The results in this text go back to patent US7534809B2, “Phospho-indoles as HIV inhibitors” (priority 2004, dated 2009).

Structures are written as SMILES. pEC50: −log10 of the molar value. Like-named read-outs stand apart in the source and are kept apart here.

One experiment relates to HIV BH-10 WT. The experiment can be described thus: Cell-based assay using BH-10 cells, wild type.
The subject of the next experiment is HIV mutant strain Y181C. The experiment in a line: Cell-based assay using BH-10 cells, Y181C mutant. How it is done: (§1) In a typical embodiment, the NNRTIs display an EC50 in a mutant HIV strain of less than approximately 5, 2.5, 1 or 0.1 μM concentration. The degree of cross-resistance against a drug resistant strain of HIV is measured by assessing the EC50 of the desired oxo-pyrimidine compound in the target mutated, i.e., drug resistant, virus.
(§2) The degree of cross-resistance against a drug resistant strain of HIV can easily be measured by assessing the EC50 of the desired indole in the target mutated i.e., drug resistant, virus.

The subject of experiment [1] is HIV mutant strain K103N/Y181C. The experiment in a line: Cell-based assay using BH-10 cells, K103N/Y181C mutant. How it is done: as §1, §2
Where [2] appears, read: Human immunodeficiency virus 1, read-out: EC50 WT///B, BH-10 cells, wild type.
Where [3] appears, read: Human immunodeficiency virus 1, read-out: EC50 Y181C, BH-10 cells, Y181C mutant.
The mark [4] stands for this setting: Human immunodeficiency virus 1, read-out: EC50 K103N/Y181C, BH-10 cells, K103N/Y181C mutant.
Setting [5] is: BH-10 cells, wild type, read-out: EC50 WT///B.
Setting [6] is: BH-10 cells, Y181C mutant, read-out: EC50 Y181C.
Where [7] appears, read: BH-10 cells, K103N/Y181C mutant, read-out: EC50 K103N/Y181C.

Regarding `COP(=O)(c1cccc(Cl)c1)c1c(C(N)=O)[nH]c2ccc(Cl)cc12` (stereo not drawn) [Compound 7c], the pEC50 is 9.40 in the experiment on HIV BH-10 WT (setting [2]), 8.06 in the experiment on HIV mutant strain Y181C (setting [3]) and 8.59 in experiment [1] (setting [4]).

Turning to `CCc1cccc(P(=O)(OC)c2c(C(N)=O)[nH]c3ccc(Cl)cc23)c1` (stereo not drawn) [Compound 7d], the values for the pEC50 (in the experiment with HIV BH-10 WT (setting [2]); in the experiment with HIV mutant strain Y181C (setting [3]); in experiment [1] (setting [4])) were 9.22, 8.19 and 8.85, respectively.

With `COP(=O)(c1cccc(C(F)(F)F)c1)c1c(C(N)=O)[nH]c2ccc(Cl)cc12` (stereo not drawn) [Compound 7e], the pEC50 with HIV BH-10 WT (setting [2]) is 9.05; with HIV mutant strain Y181C (setting [3]), 8.49; in experiment [1] (setting [4]), 8.92.

As to `COP(=O)(c1cccc(C#N)c1)c1c(C(N)=O)[nH]c2ccc(Cl)cc12` (stereo not drawn) [Compound 7f], the figures for the pEC50 (with HIV BH-10 WT (setting [2]); in the experiment on HIV mutant strain Y181C (setting [3]); in experiment [1] (setting [4])) were 9.05, 7.98 and 7.82, respectively.

With `COP(=O)(c1cccc(C(C)C)c1)c1c(C(N)=O)[nH]c2ccc(Cl)cc12` (stereo not drawn) [Compound 7g], the pEC50 was 8.60 with HIV BH-10 WT (setting [2]), 8.06 in the experiment on HIV mutant strain Y181C (setting [3]) and 8.11 in experiment [1] (setting [4]).

For the molecule `COP(=O)(c1cccc(CF)c1)c1c(C(N)=O)[nH]c2ccc(Cl)cc12` (stereo not drawn) [Compound 7h], the figures for the pEC50 (in the experiment with HIV BH-10 WT (setting [2]); in the experiment with HIV mutant strain Y181C (setting [3]); in experiment [1] (setting [4])) were 9.05, 8.21 and 8.60, respectively.

Regarding `COP(=O)(c1cccc(-c2ccccc2)c1)c1c(C(N)=O)[nH]c2ccc(Cl)cc12` (stereo not drawn) [Compound 7i], the pEC50 with HIV BH-10 WT (setting [2]) is 8.00; with HIV mutant strain Y181C (setting [3]) it was 6.40; in experiment [1] (setting [4]) it was 6.42.

As to `COP(=O)(c1cc(F)cc(Br)c1)c1c(C(N)=O)[nH]c2ccc(Cl)cc12` (stereo not drawn) [Compound 7j], the pEC50 in the experiment with HIV BH-10 WT (setting [2]) is 8.74; in the experiment on HIV mutant strain Y181C (setting [3]), 8.52; in experiment [1] (setting [4]) it was 8.39.

Regarding `COc1cccc(P(=O)(OC)c2c(C(N)=O)[nH]c3ccc(Cl)cc23)c1` (stereo not drawn) [Compound 7l], the pEC50 in the experiment with HIV BH-10 WT (setting [2]) was 9.22; in the experiment with HIV mutant strain Y181C (setting [3]) it was 7.41; in experiment [1] (setting [4]) it was 7.66.

On to `COc1ccccc1P(=O)(OC)c1c(C(N)=O)[nH]c2ccc(Cl)cc12` (stereo not drawn) [Compound 7n], for which the figures for the pEC50 (in the experiment with HIV BH-10 WT (setting [5]); in the experiment with HIV mutant strain Y181C (setting [6]); in experiment [1] (setting [7])) were 8.77, 7.18 and 8.82, respectively.

For the molecule `COP(=O)(c1cc(F)cc(C(F)(F)F)c1)c1c(C(N)=O)[nH]c2ccc(Cl)cc12` (stereo not drawn) [Compound 7q], the pEC50 was 8.96 with HIV BH-10 WT (setting [2]), 7.78 with HIV mutant strain Y181C (setting [3]) and 8.54 in experiment [1] (setting [4]).

Take `COP(=O)(c1cc(C(F)(F)F)cc(C(F)(F)F)c1)c1c(C(N)=O)[nH]c2ccc(Cl)cc12` (stereo not drawn) [Compound 7s]: the pEC50 is 7.89 with HIV BH-10 WT (setting [2]), 7.17 in the experiment with HIV mutant strain Y181C (setting [3]) and 7.32 in experiment [1] (setting [4]).

With `COP(=O)(c1cccc2ccccc12)c1c(C(N)=O)[nH]c2ccc(Cl)cc12` (stereo not drawn) [Compound 7t], the values for the pEC50 (with HIV BH-10 WT (setting [2]); in the experiment on HIV mutant strain Y181C (setting [3]); in experiment [1] (setting [4])) were 9.22, 8.24 and 8.59, respectively.

For the molecule `COP(=O)(c1cc(F)cc(Cl)c1)c1c(C(N)=O)[nH]c2ccc(Cl)cc12` (stereo not drawn) [Compound 7v], the pEC50 in the experiment with HIV BH-10 WT (setting [2]) is 9.10; in the experiment on HIV mutant strain Y181C (setting [3]), 7.83; in experiment [1] (setting [4]), 8.64.

`CCc1cc(C)cc(P(=O)(OC)c2c(C(N)=O)[nH]c3ccc(Cl)cc23)c1` (stereo not drawn) [Compound 7w]: the results for the pEC50 (in the experiment on HIV BH-10 WT (setting [2]); in the experiment with HIV mutant strain Y181C (setting [3]); in experiment [1] (setting [4])) were 9.40, 8.26 and 8.92, respectively.

Take `CCCc1cccc(P(=O)(OC)c2c(C(N)=O)[nH]c3ccc(Cl)cc23)c1` (stereo not drawn) [Compound 7x]: the results for the pEC50 (in the experiment with HIV BH-10 WT (setting [2]); with HIV mutant strain Y181C (setting [3]); in experiment [1] (setting [4])) were 8.52, 7.86 and 8.06, respectively.

Turning to `COP(=O)(c1cc(C)cc(C)c1)c1c(C(N)=O)[nH]c2ccc(Cl)c(F)c12` (stereo not drawn) [Compound 7z], the pEC50 in the experiment on HIV BH-10 WT (setting [2]) is 8.68; in the experiment with HIV mutant strain Y181C (setting [3]) it was 8.07; in experiment [1] (setting [4]) it was 8.66.

In the case of `COP(=O)(c1cccc(C)c1)c1c(C(=O)NCc2ccncc2)[nH]c2ccc(Cl)cc12` (stereo not drawn) [Compound 18a], the pEC50 in the experiment with HIV BH-10 WT (setting [2]) was 9.00; in the experiment on HIV mutant strain Y181C (setting [3]) it was 8.00; in experiment [1] (setting [4]), 8.51.

As to `COP(=O)(c1cc(C)cc(C)c1)c1c(C(=O)NCc2cncn2C)[nH]c2ccc(Cl)cc12` (stereo not drawn) [Compound 18aaa], the pEC50 in the experiment with HIV BH-10 WT (setting [2]) is 8.49; in the experiment with HIV mutant strain Y181C (setting [3]), 8.19; in experiment [1] (setting [4]), 8.48.

As for `COP(=O)(c1ccccc1)c1c(C(=O)NCc2ccccc2F)[nH]c2ccc(Cl)cc12` (stereo not drawn) [Compound 18aab], the figures for the pEC50 (in the experiment with HIV BH-10 WT (setting [2]); in the experiment with HIV mutant strain Y181C (setting [3]); in experiment [1] (setting [4])) were 8.42, 7.47 and 7.99, respectively.

In the case of `COP(=O)(c1ccccc1)c1c(C(=O)NCN2CCOCC2)[nH]c2ccc(Cl)cc12` (stereo not drawn) [Compound 18aac], the pEC50 was 9.30 with HIV BH-10 WT (setting [2]), 8.00 with HIV mutant strain Y181C (setting [3]) and 7.85 in experiment [1] (setting [4]).

For the molecule `COP(=O)(c1cc(F)cc(F)c1)c1c(C(=O)NCc2ccccc2F)[nH]c2ccc(Cl)cc12` (stereo not drawn) [Compound 18aad], the pEC50 is 7.96 with HIV BH-10 WT (setting [2]), 7.42 in the experiment with HIV mutant strain Y181C (setting [3]) and 7.90 in experiment [1] (setting [4]).

On to `COP(=O)(c1cc(F)cc(F)c1)c1c(C(=O)NCc2cncn2C)[nH]c2ccc(Cl)cc12` (stereo not drawn) [Compound 18aae], for which the figures for the pEC50 (in the experiment with HIV BH-10 WT (setting [2]); with HIV mutant strain Y181C (setting [3]); in experiment [1] (setting [4])) were 8.59, 7.98 and 8.57, respectively.

`COP(=O)(c1cc(C)cc(C#N)c1)c1c(C(=O)NCc2ccncc2)[nH]c2ccc(Cl)cc12` (stereo not drawn) [Compound 18aaf]: the pEC50 was 8.74 with HIV BH-10 WT (setting [2]), 8.41 with HIV mutant strain Y181C (setting [3]) and 8.96 in experiment [1] (setting [4]).

Regarding `COP(=O)(c1cc(C)cc(C#N)c1)c1c(C(=O)NCc2cncn2C)[nH]c2ccc(Cl)cc12` (stereo not drawn) [Compound 18aag], the pEC50 is 8.51 in the experiment with HIV BH-10 WT (setting [2]), 7.73 in the experiment with HIV mutant strain Y181C (setting [3]) and 8.54 in experiment [1] (setting [4]).

Turning to `COP(=O)(c1cc(C)cc(C)c1)c1c(C(=O)NCc2c(F)cccc2F)[nH]c2ccc(Cl)cc12` (stereo not drawn) [Compound 18aah], the pEC50 is 8.15 with HIV BH-10 WT (setting [5]), 7.64 in the experiment with HIV mutant strain Y181C (setting [6]) and 7.77 in experiment [1] (setting [7]).

For `COP(=O)(c1cc(C)cc(C)c1)c1c(C(=O)NCc2cc(F)ccc2F)[nH]c2ccc(Cl)cc12` (stereo not drawn) [Compound 18aai], the pEC50 in the experiment with HIV BH-10 WT (setting [5]) was 8.44; in the experiment with HIV mutant strain Y181C (setting [6]) it was 7.81; in experiment [1] (setting [7]) it was 7.74.

`COP(=O)(c1cc(C)cc(C)c1)c1c(C(=O)NCc2ccccc2C(F)(F)F)[nH]c2ccc(Cl)cc12` (stereo not drawn) [Compound 18aal]: the pEC50 was 7.52 in the experiment on HIV BH-10 WT (setting [2]), 7.71 in the experiment with HIV mutant strain Y181C (setting [3]) and 7.66 in experiment [1] (setting [4]).

Regarding `COP(=O)(c1cc(C)cc(C)c1)c1c(C(=O)NCc2ccccn2)[nH]c2ccc(Cl)cc12` (stereo not drawn) [Compound 18aam], the pEC50 with HIV BH-10 WT (setting [2]) was 7.76; in the experiment with HIV mutant strain Y181C (setting [3]), 8.17; in experiment [1] (setting [4]) it was 7.65.

As to `COP(=O)(c1cc(C)cc(C)c1)c1c(C(=O)NCc2cccnc2)[nH]c2ccc(Cl)c(F)c12` (stereo not drawn) [Compound 18aan], the pEC50 with HIV BH-10 WT (setting [2]) is 7.82; in the experiment with HIV mutant strain Y181C (setting [3]), 6.52; in experiment [1] (setting [4]), 6.22.

With `COP(=O)(c1ccccc1)c1c(C(=O)N[C@H](C(N)=O)c2ccccc2)[nH]c2ccc(Cl)cc12` (stereo partly drawn) [Compound 18aao], the pEC50 in the experiment with HIV BH-10 WT (setting [2]) was 7.42; with HIV mutant strain Y181C (setting [3]), 6.54; in experiment [1] (setting [4]), 6.93.

For `C=Cc1cccc(P(=O)(OC)c2c(C(N)=O)[nH]c3ccc(Cl)cc23)c1` (stereo not drawn) [Compound 18aaq], the pEC50 in the experiment on HIV BH-10 WT (setting [2]) is 8.14; in the experiment on HIV mutant strain Y181C (setting [3]), 7.74; in experiment [1] (setting [4]), 7.56.

In the case of `CCc1cccc(P(=O)(OC)c2c(C(=O)NCc3ccncc3)[nH]c3ccc(Cl)cc23)c1` (stereo not drawn) [Compound 18ap], the pEC50 with HIV BH-10 WT (setting [2]) was 8.24; in the experiment on HIV mutant strain Y181C (setting [3]), 8.43; in experiment [1] (setting [4]), 8.24.
